# What was measured:
# Experiment in all cases: relative viability (nuclei count vs DMSO), 5 days (fraction); higher = more cells survive
# AZ505 + Trametinib = compound: C1CCC(CC1)N(CCNCCC2=C3C(=C(C=C2)O)NC(=O)CO3)C(=O)CCNCCC4=CC(=C(C=C4)Cl)Cl [AZ505] + CC(=O)Nc1cccc(-n2c(=O)n(C3CC3)c(=O)c3c(Nc4ccc(I)cc4F)n(C)c(=O)c(C)c32)c1 [Trametinib] (partner 0.02 µM)
# Summary of the method: (§1)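 After 5 days of treatment, lung cancer cells in 1536-well plates were fixed and stained in a single step (final 0.05% Triton X-100, 1% formaldehyde, 1 ug/ml Hoechst) and their nuclei counted on 4× images. Treatment had been applied by pin tool the day after seeding as one drug alone or as a fixed anchor-drug dose with five library-drug doses (not always all listed) in √10 steps. Relative viability is the nuclei count of treated wells divided by that of vehicle wells, and values are medians of duplicate plates.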
# AZ505 + Phenformin = compound: C1CCC(CC1)N(CCNCCC2=C3C(=C(C=C2)O)NC(=O)CO3)C(=O)CCNCCC4=CC(=C(C=C4)Cl)Cl [AZ505] + N=C(N)NC(=N)NCCc1ccccc1 [Phenformin] (partner 250 µM)
# Summary of the method: as §1
# AZ505 + Decitabine = compound: C1CCC(CC1)N(CCNCCC2=C3C(=C(C=C2)O)NC(=O)CO3)C(=O)CCNCCC4=CC(=C(C=C4)Cl)Cl [AZ505] + Nc1ncn([C@H]2C[C@H](O)[C@@H](CO)O2)c(=O)n1 [Decitabine] (partner 2 µM)
# Summary of the method: as §1
# Dactolisib + Navitoclax = compound: Cn1c(=O)n(-c2ccc(C(C)(C)C#N)cc2)c2c3cc(-c4cnc5ccccc5c4)ccc3ncc21 [Dactolisib] + CC1(C)CCC(c2ccc(Cl)cc2)=C(CN2CCN(c3ccc(C(=O)NS(=O)(=O)c4ccc(N[C@H](CCN5CCOCC5)CSc5ccccc5)c(S(=O)(=O)C(F)(F)F)c4)cc3)CC2)C1 [Navitoclax] (partner 0.5 µM)
# Summary of the method: as §1
Cell Line,relative viability (AZ505 + Trametinib; first compound 0.08 µM),relative viability (AZ505 + Trametinib; first compound 0.253 µM),relative viability (AZ505 + Trametinib; first compound 0.8 µM),relative viability (AZ505 + Trametinib; first compound 2.53 µM),relative viability (AZ505 + Trametinib; first compound 8 µM),relative viability (AZ505 + Phenformin; first compound 0.08 µM),relative viability (AZ505 + Phenformin; first compound 0.253 µM),relative viability (AZ505 + Phenformin; first compound 0.8 µM),relative viability (AZ505 + Phenformin; first compound 2.53 µM),relative viability (AZ505 + Phenformin; first compound 8 µM),relative viability (AZ505 + Decitabine; first compound 0.08 µM),relative viability (AZ505 + Decitabine; first compound 0.253 µM),relative viability (AZ505 + Decitabine; first compound 0.8 µM),relative viability (AZ505 + Decitabine; first compound 2.53 µM),relative viability (AZ505 + Decitabine; first compound 8 µM),relative viability (Dactolisib + Navitoclax; first compound 0.002 µM),relative viability (Dactolisib + Navitoclax; first compound 0.006325 µM),relative viability (Dactolisib + Navitoclax; first compound 0.02 µM),relative viability (Dactolisib + Navitoclax; first compound 0.06325 µM),relative viability (Dactolisib + Navitoclax; first compound 0.2 µM)
NCI-H2126,0.523,0.592,0.523,0.629,0.574,0.466,0.537,0.491,0.526,0.538,0.589,0.6,0.547,0.563,0.59,0.896,0.77,0.762,0.564,0.399
LXF-289,0.632,0.629,0.66,0.678,0.665,0.488,0.491,0.512,0.509,0.514,0.355,0.39,0.396,0.347,0.386,1.02,0.932,1,0.828,0.571
NCI-H2009,0.247,0.262,0.233,0.276,0.287,0.387,0.486,0.468,0.506,0.442,0.451,0.397,0.361,0.362,0.365,1.27,1.12,1.1,0.692,0.501
NCI-H2405,0.487,,0.615,0.586,0.603,0.278,0.214,0.31,0.218,0.263,0.605,,0.702,0.703,0.647,0.727,0.935,0.831,0.391,0.25
NCI-H1755,0.728,0.785,0.749,0.741,0.746,0.615,0.592,0.663,0.639,0.688,0.721,0.727,0.724,0.711,0.772,1.09,0.943,0.928,0.519,0.467
HCC-78,,,0.594,0.701,0.653,0.531,0.611,0.707,0.731,0.728,,,0.738,0.705,0.801,0.784,0.791,0.543,0.288,0.251
LOU-NH91,0.772,0.77,0.76,0.798,0.765,0.685,0.684,0.604,0.805,0.729,0.783,0.818,0.781,0.801,0.805,0.547,0.6,0.646,0.431,0.385
NCI-H3122,0.211,0.258,0.215,0.27,0.267,0.369,0.353,0.37,0.357,0.414,0.417,0.414,0.418,0.454,0.431,1.02,1.05,0.993,0.809,0.491
HCC-827,0.548,0.577,0.501,0.501,0.533,0.401,0.427,0.453,0.44,0.425,0.325,0.313,0.324,0.37,0.351,1.03,1.02,1.06,0.905,0.687
SW 1573,0.536,0.657,0.515,0.474,0.543,0.36,0.402,0.333,0.341,0.373,0.517,0.63,0.569,0.476,0.501,1.09,0.866,0.775,0.252,0.294
NCI-H1975,0.351,0.315,0.377,0.356,0.332,0.348,0.402,0.419,0.405,0.429,0.345,0.355,0.407,0.322,0.403,1.14,1.01,0.689,0.55,0.362
NCI-H1651,0.814,0.863,0.834,0.817,0.829,0.385,0.346,0.318,0.357,0.345,0.55,0.576,0.672,0.727,0.598,1.13,0.865,0.755,0.317,0.276
NCI-H441,0.413,0.385,0.536,0.568,0.465,0.742,0.814,0.905,0.907,0.786,0.287,0.245,0.232,0.25,0.264,0.851,0.416,0.577,0.237,0.303
LCLC-97TM1,0.208,0.156,0.166,,0.191,0.386,0.445,0.416,0.428,0.462,0.195,0.253,0.244,,0.228,0.503,0.33,0.3,0.202,0.192
NCI-H727,0.418,0.411,0.365,0.391,0.358,0.651,0.461,0.525,,0.613,0.829,0.693,0.812,0.849,0.987,0.467,0.506,0.341,0.248,0.162
NCI-H1355,0.419,0.394,0.446,0.445,0.44,0.433,0.407,0.477,0.481,0.499,0.345,0.366,0.37,0.379,0.351,0.959,0.836,0.86,0.335,0.234
HOP-62,0.371,0.326,0.333,0.382,0.32,0.63,0.797,0.67,0.725,0.784,0.21,0.221,0.259,0.205,0.204,1.24,1.08,1.06,0.353,0.613
NCI-H2085,0.49,0.477,0.52,0.571,0.591,0.68,0.613,0.664,0.677,0.694,0.571,0.551,0.496,0.565,0.569,1.17,1.01,0.89,0.584,0.367

# — the supplement of paper PMC10307832
